Data set [1] relates to thrombin time. The experiment in a line: Thrombin time after oral administration of capsules to beagles. The class given is in vivo, beagle dogs. The settings on record: without the addition of a surfactant. The method, then: (§1) A. 2 of the capsules obtained as described in Examples 1a-1d or 3a-3b (total dose 28,000 IU of heparin or 700 mg of heparinoid) were administered orally to each of a number of beagles weighing about 7 kg. The concentration of active compound in the blood of the dogs was determined before and 30 minutes, 1 hour and 2, 3, 5, 8, 14 and 24 hours after the administration of heparin. The heparin was determined in citrated plasma, using a chromogenic substrate (cf. Thromb. Res. 8 (1976), 413 and Volume 2 of Reports, Thrombosis and Hemostasis Congress, Munster, 1982, Schattauer Verlag, Stuttgart, pages 238-246). The thrombin time was also determined (cf. Kleiner Gerinnungstatus, published by Behringwerke, 1982, page 40). The heparin or heparinoid concentration (c) in the blood and the quotient T of the thrombin time of the treated animals to that of the untreated animals reached their highest values after 2 hours.
(§2) Since, in contrast to heparin, heparinoids prolong the bleeding time (in this case the thrombin time) only slightly, if at all, they are not standardized on the basis of anticoagulant activity.

The nature of data set [2]: Heparin/heparinoid concentration in blood after oral administration of capsules to beagles (citrated plasma, chromogenic substrate). The class given is in vivo, beagle dogs. The settings on record: for heparin or heparinoid concentration in the blood, without surfactant (in words): without the addition of a surfactant; for heparin level in the blood, without surfactant: in the absence of added surfactant. Here is the method:
as §1, §2

Turning to heparin [heparin used in Example 1a], in data set [1], the “thrombin time, without surfactant (in words)” value was “did not change the thrombin time”. Further, the “heparin or heparinoid concentration in the blood, without surfactant (in words)” value in data set [2] was “did not result in a measurable heparin or heparinoid concentration in the blood”.

Consider heparin [heparin used in Example 1b], for which the “thrombin time, without surfactant (in words)” value in data set [1] is “did not change the thrombin time”. For the same substance, in data set [2], the “heparin or heparinoid concentration in the blood, without surfactant (in words)” value is given as “did not result in a measurable heparin or heparinoid concentration in the blood”.

On to heparin [heparin used in Example 1c], for which the “thrombin time, without surfactant (in words)” value in data set [1] is given as “no change in the thrombin time”. Moreover, the “heparin level in the blood, without surfactant” value in data set [2] was found to be 0.15 IU/ml.

In the case of heparin [heparin used in Example 1d], the “thrombin time, without surfactant (in words)” value in data set [1] is “no change in the thrombin time”. Moreover, in data set [2], the “heparin level in the blood, without surfactant” value was 0.25 IU/ml.

As for “mucopolysaccharide polysulfate [heparinoid used in Example 3b]”, in data set [1], the “thrombin time, without surfactant (in words)” value is “did not change the thrombin time”. In data set [2], the “heparin or heparinoid concentration in the blood, without surfactant (in words)” value is listed as “did not result in a measurable heparin or heparinoid concentration in the blood”.

On to “sodium pentosan polysulfate [heparinoid used in Example 3a]”, for which, in data set [1], the “thrombin time, without surfactant (in words)” value is reported as “did not change the thrombin time”. Further, the “heparin or heparinoid concentration in the blood, without surfactant (in words)” value in data set [2] is listed as “did not result in a measurable heparin or heparinoid concentration in the blood”.
